pIC50: −log10 of the molar value.
These compounds were tested against T1, human MGL from HeLa cells (Homo sapiens, UniProt Q99685) (assay: In vitro MGL activity assay: [glycerol-1,3-3H]-oleyl glycerol cleavage by MGL from HeLa cells). Details: 300 nM [Glycerol-1,3-3H]-oleyl glycerol, one hour incubation.
T1 construct: combining endogenously expressed MGL from HeLa cells with test compounds; endogenous in cells; host or cells: HeLa cells / cell homogenates
T1 sequence (Q99685 1-303): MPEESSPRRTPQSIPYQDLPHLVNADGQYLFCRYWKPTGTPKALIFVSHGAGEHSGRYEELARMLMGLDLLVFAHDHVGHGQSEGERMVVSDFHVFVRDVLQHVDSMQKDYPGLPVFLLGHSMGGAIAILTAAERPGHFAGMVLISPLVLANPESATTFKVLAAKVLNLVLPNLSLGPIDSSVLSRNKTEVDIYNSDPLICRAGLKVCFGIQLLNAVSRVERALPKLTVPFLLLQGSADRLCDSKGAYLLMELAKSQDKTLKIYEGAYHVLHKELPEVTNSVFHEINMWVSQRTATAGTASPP
Type: biochemical
Source text: MGL is the predominant hydrolase in HeLa cells/cell homogenates.
A pIC50 of 7.57 was found for `Cc1ccc(-c2c3c(nn2C)[C@H](C)N(C(=O)c2ccc4nccnc4c2)CC3)cc1Cl` [Example 183, (S)-(3-(3-Chloro-4-methylphenyl)-2,7-dimethyl-2,4,5,7-tetrahydro-6H-pyrazolo[3,4-c]pyridin-6-yl)(quinoxalin-6-yl)methanone] in this work. A pIC50 of 6.87 was found for `C[C@H]1c2nn(C)c(-c3cc(F)cc(C(F)(F)F)c3)c2CCN1C(=O)c1ccc2nccnc2c1` [Example 184, (S)-(3-(3-Fluoro-5-(trifluoromethyl)phenyl)-2,7-dimethyl-2,4,5,7-tetrahydro-6H-pyrazolo[3,4-c]pyridin-6-yl)(quinoxalin-6-yl)methanone] in this work. A pIC50 of 6.41 was found for `COc1ccc(-c2c3c(nn2C)[C@H](C)N(C(=O)c2ccc4nccnc4c2)CC3)cc1F` [Example 185, (S)-(3-(3-Fluoro-4-methoxyphenyl)-2,7-dimethyl-2,4,5,7-tetrahydro-6H-pyrazolo[3,4-c]pyridin-6-yl)(quinoxalin-6-yl)methanone] in this work. A pIC50 of 7.34 was found for `COc1cc(F)cc(-c2c3c(nn2C)[C@H](C)N(C(=O)c2ccc4nccnc4c2)CC3)c1` [Example 186, (S)-(3-(3-Fluoro-5-methoxyphenyl)-2,7-dimethyl-2,4,5,7-tetrahydro-6H-pyrazolo[3,4-c]pyridin-6-yl)(quinoxalin-6-yl)methanone] in this work. A pIC50 of 7.38 was found for `COc1cc(F)cc(-c2c3c(nn2C)[C@H](C)N(C(=O)c2cc4nccnc4cc2F)CC3)c1` [Example 187, (S)-(3-(3-Fluoro-5-methoxyphenyl)-2,7-dimethyl-2,4,5,7-tetrahydro-6H-pyrazolo[3,4-c]pyridin-6-yl)(7-fluoroquinoxalin-6-yl)methanone] in this work. A pIC50 of 6.98 was found for `COc1ccc(-c2c3c(nn2C)[C@H](C)N(C(=O)c2ccc4nccnc4c2)CC3)cc1Cl` [Example 188, (S)-(3-(3-Chloro-4-methoxyphenyl)-2,7-dimethyl-2,4,5,7-tetrahydro-6H-pyrazolo[3,4-c]pyridin-6-yl)(quinoxalin-6-yl)methanone] in this work. A pIC50 of 6.99 was found for `C[C@H]1c2nn(C)c(-c3ccc(OC(F)F)c(F)c3)c2CCN1C(=O)c1ccc2nccnc2c1` [Example 189, (S)-(3-(4-(Difluoromethoxy)-3-fluorophenyl)-2,7-dimethyl-2,4,5,7-tetrahydro-6H-pyrazolo[3,4-c]pyridin-6-yl)(quinoxalin-6-yl)methanone] in this work. A pIC50 of 6.88 was found for `Cc1c(F)cc(-c2c3c(nn2C)[C@H](C)N(C(=O)c2ccc4nccnc4c2)CC3)cc1F` [Example 190, (S)-(3-(3,5-Difluoro-4-methylphenyl)-2,7-dimethyl-2,4,5,7-tetrahydro-6H-pyrazolo[3,4-c]pyridin-6-yl)(quinoxalin-6-yl)methanone] in this work. A pIC50 of 8.59 was found for `COc1cccc(C(=O)N2CCc3c(nn(C)c3-c3cc(F)c(F)c(F)c3)[C@@H]2C)c1Cl` [Example 191, (S)-(2-Chloro-3-methoxyphenyl)(2,7-dimethyl-3-(3,4,5-trifluorophenyl)-2,4,5,7-tetrahydro-6H-pyrazolo[3,4-c]pyridin-6-yl)methanone] in this work. A pIC50 of 8.17 was found for `COc1cc(Cl)cc(C(=O)N2CCc3c(nn(C)c3-c3cc(F)c(F)c(F)c3)[C@@H]2C)c1` [Example 192, (S)-(3-Chloro-5-methoxyphenyl)(2,7-dimethyl-3-(3,4,5-trifluorophenyl)-2,4,5,7-tetrahydro-6H-pyrazolo[3,4-c]pyridin-6-yl)methanone] in this work. A pIC50 of 7.12 was found for `C[C@H]1c2nn(C)c(-c3cc(F)c(F)c(F)c3)c2CCN1C(=O)c1cc(F)ccc1-n1cccn1` [Example 193, (S)-(2,7-Dimethyl-3-(3,4,5-trifluorophenyl)-2,4,5,7-tetrahydro-6H-pyrazolo[3,4-c]pyridin-6-yl)(5-fluoro-2-(1H-pyrazol-1-yl)phenyl)methanone] in this work. A pIC50 of 7.83 was found for `C[C@H]1c2nn(C)c(-c3cc(F)c(F)c(F)c3)c2CCN1C(=O)c1cccc(-n2cncn2)c1` [Example 194, (S)-(3-(1H-1,2,4-Triazol-1-yl)phenyl)(2,7-dimethyl-3-(3,4,5-trifluorophenyl)-2,4,5,7-tetrahydro-6H-pyrazolo[3,4-c]pyridin-6-yl)methanone] in this work. A pIC50 of 6.51 was found for `C[C@H]1c2nn(C)c(-c3cc(F)c(F)c(F)c3)c2CCN1C(=O)c1cccc(F)c1-n1nccn1` [Example 195, (S)-(2,7-Dimethyl-3-(3,4,5-trifluorophenyl)-2,4,5,7-tetrahydro-6H-pyrazolo[3,4-c]pyridin-6-yl)(3-fluoro-2-(2H-1,2,3-triazol-2-yl)phenyl)methanone] in this work. A pIC50 of 6.51 was found for `C[C@H]1c2nn(C)c(-c3cc(F)c(F)c(F)c3)c2CCN1C(=O)c1ccc(F)cc1-n1nccn1` [Example 196, (S)-(2,7-Dimethyl-3-(3,4,5-trifluorophenyl)-2,4,5,7-tetrahydro-6H-pyrazolo[3,4-c]pyridin-6-yl)(4-fluoro-2-(2H-1,2,3-triazol-2-yl)phenyl)methanone] in this work. A pIC50 of 7.22 was found for `Cc1ccc(-n2nccn2)c(C(=O)N2CCc3c(nn(C)c3-c3cc(F)c(F)c(F)c3)[C@@H]2C)c1` [Example 197, (S)-(2,7-Dimethyl-3-(3,4,5-trifluorophenyl)-2,4,5,7-tetrahydro-6H-pyrazolo[3,4-c]pyridin-6-yl)(5-methyl-2-(2H-1,2,3-triazol-2-yl)phenyl)methanone] in this work. A pIC50 of 7.85 was found for `C[C@H]1c2nn(C)c(-c3cc(F)c(F)c(F)c3)c2CCN1C(=O)c1cnn(C)c1C(F)(F)F` [Example 198, (S)-(2,7-Dimethyl-3-(3,4,5-trifluorophenyl)-2,4,5,7-tetrahydro-6H-pyrazolo[3,4-c]pyridin-6-yl)(1-methyl-5-(trifluoromethyl)-1H-pyrazol-4-yl)methanone] in this work. A pIC50 of 6.77 was found for `C[C@H]1c2nn(C)c(-c3cc(F)c(F)c(F)c3)c2CCN1C(=O)c1cnn(C(C)(C)C)c1C(F)(F)F` [Example 199, (S)-(1-(tert-Butyl)-5-(trifluoromethyl)-1H-pyrazol-4-yl)(2,7-dimethyl-3-(3,4,5-trifluorophenyl)-2,4,5,7-tetrahydro-6H-pyrazolo[3,4-c]pyridin-6-yl)methanone] in this work. A pIC50 of 6.53 was found for `COc1cc(C(=O)N2CCc3c(nn(C)c3-c3cc(F)c(F)c(F)c3)[C@@H]2C)nn1C` [Example 200, (S)-(2,7-Dimethyl-3-(3,4,5-trifluorophenyl)-2,4,5,7-tetrahydro-6H-pyrazolo[3,4-c]pyridin-6-yl)(5-methoxy-1-methyl-1H-pyrazol-3-yl)methanone] in this work. A pIC50 of 8.20 was found for `C[C@H]1c2nn(C)c(-c3cc(F)c(F)c(F)c3)c2CCN1C(=O)c1cnn(C)c1C1CC1` [Example 201, (S)-(5-Cyclopropyl-1-methyl-1H-pyrazol-4-yl)(2,7-dimethyl-3-(3,4,5-trifluorophenyl)-2,4,5,7-tetrahydro-6H-pyrazolo[3,4-c]pyridin-6-yl)methanone] in this work. A pIC50 of 8.13 was found for `CCc1nc(C(=O)N2CCc3c(nn(C)c3-c3cc(F)c(F)c(F)c3)[C@@H]2C)nn1-c1ccccc1` [Example 202, (S)-(2,7-Dimethyl-3-(3,4,5-trifluorophenyl)-2,4,5,7-tetrahydro-6H-pyrazolo[3,4-c]pyridin-6-yl)(5-ethyl-1-phenyl-1H-1,2,4-triazol-3-yl)methanone] in this work. A pIC50 of 7.17 was found for `COc1cncc(C(=O)N2CCc3c(nn(C)c3-c3cc(F)c(F)c(F)c3)[C@@H]2C)c1` [Example 203, (S)-(2,7-Dimethyl-3-(3,4,5-trifluorophenyl)-2,4,5,7-tetrahydro-6H-pyrazolo[3,4-c]pyridin-6-yl)(5-methoxypyridin-3-yl)methanone] in this work. A pIC50 of 7.75 was found for `C[C@H]1c2nn(C)c(-c3cc(F)c(F)c(F)c3)c2CCN1C(=O)c1ccc2c(c1)N(C)C(=O)CO2` [Example 204, (S)-6-(2,7-Dimethyl-3-(3,4,5-trifluorophenyl)-4,5,6,7-tetrahydro-2H-pyrazolo[3,4-c]pyridine-6-carbonyl)-4-methyl-2H-benzo[b][1,4]oxazin-3(4H)-one] in this work. A pIC50 of 7.48 was found for `C[C@H]1c2nn(C)c(-c3cc(F)c(F)c(F)c3)c2CCN1C(=O)c1cccc2cc[nH]c12` [Example 205, (S)-(2,7-Dimethyl-3-(3,4,5-trifluorophenyl)-2,4,5,7-tetrahydro-6H-pyrazolo[3,4-c]pyridin-6-yl)(1H-indol-7-yl)methanone] in this work. A pIC50 of 8.31 was found for `C[C@H]1c2nn(C)c(-c3cc(F)c(F)c(F)c3)c2CCN1C(=O)c1cccc2ccn(C)c12` [Example 206, (S)-(2,7-Dimethyl-3-(3,4,5-trifluorophenyl)-2,4,5,7-tetrahydro-6H-pyrazolo[3,4-c]pyridin-6-yl)(1-methyl-1H-indol-7-yl)methanone] in this work. A pIC50 of 9.66 was found for `C[C@H]1c2nn(C)c(-c3cc(F)c(F)c(F)c3)c2CCN1C(=O)c1cccc2c1ccn2C` [Example 207, (S)-(2,7-dimethyl-3-(3,4,5-trifluorophenyl)-2,4,5,7-tetrahydro-6H-pyrazolo[3,4-c]pyridin-6-yl)(1-methyl-1H-indol-4-yl)methanone] in this work. A pIC50 of 7.47 was found for `C[C@H]1c2nn(C)c(-c3cc(F)c(F)c(F)c3)c2CCN1C(=O)c1cccc2cn[nH]c12` [Example 208, (S)-(2,7-Dimethyl-3-(3,4,5-trifluorophenyl)-2,4,5,7-tetrahydro-6H-pyrazolo[3,4-c]pyridin-6-yl)(1H-indazol-7-yl)methanone] in this work. A pIC50 of 7.96 was found for `C[C@H]1c2nn(C)c(-c3cc(F)c(F)c(F)c3)c2CCN1C(=O)c1cccc2cnn(C)c12` [Example 209, (S)-(2,7-Dimethyl-3-(3,4,5-trifluorophenyl)-2,4,5,7-tetrahydro-6H-pyrazolo[3,4-c]pyridin-6-yl)(1-methyl-1H-indazol-7-yl)methanone] in this work. A pIC50 of 9.22 was found for `Cc1cc(C(=O)N2CCc3c(nn(C)c3-c3cc(F)c(F)c(F)c3)[C@@H]2C)cc2cn[nH]c12` [Example 210, (S)-(2,7-Dimethyl-3-(3,4,5-trifluorophenyl)-2,4,5,7-tetrahydro-6H-pyrazolo[3,4-c]pyridin-6-yl)(7-methyl-1H-indazol-5-yl)methanone] in this work.
